Experiments:
[1] = tested on: Varroa mites; assay: Toxicity to Varroa mites submerged in 3µL liquid in eppendorf tubes; type: in vivo; details: for mean number of live mites: day 3, 10 mites per tube
Protocol: Example 5 - Toxicity of BPQ A to Varroa mites
To assess the toxicity of BPQ to the Varroa mite
Varroa mites only feed on haemolymph of larvae and adult bees and thus would not ingest BPQ in a syrup/water solution. Therefore, it was necessary to identify a volume sufficient to permeate through the cuticle, but not drown the mites. After preliminary investigation it was concluded that 3µL/10 mites/eppendorf tube gave the maximum viability and the latter was used for this trial.
A total of 3µL of BPQ A/solvent was pipetted into each eppendorf tube. Ten mites taken from purple eye drone pupae were submerged in the liquid by tapping the tube gently and a fresh pupa was placed in each tube. 20 pinholes were made in each of the tubes and all samples were placed in the incubator at 30°C. Three replicates were made for each concentration and water was used in the control group. Concentrations of BPQ A and solvent were as described above (Section 1.1). The number of damaged or dead mites was counted on a daily basis. Damaged mites were mites that would not move in a coordinated fashion when touched gently 3 times with a fine brush.

[2] = tested on: honeybee larvae; assay: Toxicity of BPQ A in an aqueous solution when sprayed on honeybee larvae; type: in vivo, Apis mellifera; details: summary statement
Protocol: Example 3 - Toxicity of BPQ A in an aqueous solution when sprayed on honeybee larvae (50mL liquid at a concentration of 50mg/mL - BPQ A)
To spray eggs/larvae with different concentrations of the active ingredient/solvent and examine the effect on development of the young larvae
Eggs/larvae of similar age were attained by placing the queen bee in a frame cage for 36 hrs. Once the frame was laid up, the queen was released and the frame was replaced in the colony for 3 days. The frame cage allowed worker bees to attend the larvae, but prevented the queen from laying in the frame. On day 3/4, when the eggs were changing to larvae, the frame was removed and divided temporarily in 6 x 5cm strips at either side using grease proof paper to facilitate the assessment of product and solvent. Within each strip, three 3.5cm x 2.5cm squares (approximately 30 cells) of grease proof paper was removed and the developing larvae sprayed with BPQ A/solvent at the concentrations described above.

[3] = tested on: honeybee larvae; assay: Toxicity of BPQ B to honeybee larvae when fed treated syrup; type: in vivo, Apis mellifera; details: colony fed treated syrup
Excerpt: To measure the effect of treatment on developing larvae when fed syrup treated with BPQ powder, BPQ B, dissolved in the solvent (N-methyl pyrollidone) and diluted in an aqueous solution.
Apidae boxes were used to raise young queens and when virgin queens started to lay an area 6cm x 3cm were marked and missing cells were noted. The miniature colony was fed treated syrup, which was made by dissolving BPQ B powder in solvent, followed by serial dilutions using a sucrose solution (2 parts sugar: 1 part water). The concentrations administered are given below. Two replicates were carried out for the product, while 1 colony (apidae) was used for each of the solvent concentrations.

CC(C)(C)[C@H]1CC[C@H](CC2=C(O)C(=O)c3ccccc3C2=O)CC1 [BPQ, buparvaquone]
mean number of live mites ([1]; 0.00005µg/mL (g)): 8.66±1.73
mean number of live mites ([1]; 0.0005µg/mL (f)): 7.66±1.33
mean number of live mites ([1]; 0.5µg/mL): 3.33±2.4
toxicity to free living Varroa mites ([1]; summary statement): highly toxic
toxicity to bee larvae [2]: non-toxic
development of developing larvae [3]: no negative effects

From patent EP2433624B1, “Use of buparvaquone for controlling mites parasitising honeybees” (Bimeda International Pharmaceuticals Limited, priority 2010, dated 2012)
